For data set [1] the following is noted: cited from earlier work.
The subject of another data set is J-Lat 10.6 cells. The data set can be described thus: In vitro latent HIV activation, J-Lat 10.6 cell line assay (GFP expression). It is filed as cell-based. Particulars: 50 nM, without vaults, positive control, 48 hrs, N=3, ±1 SD. Here is the method: (§1) FIGS. 10A, 10B, and 10C: FIG. 10A) In vitro latent HIV activation using bryostatin 1 sequestered in AH1 vault complexes compared to empty vault complexes on J-Lat 10.6 cells for 48 hrs. In these assays 50 nM of byrostatin 1 (without vaults) was used as a positive control and induced GFP expression in 30.6% (±0.6%) of cells. Error bars indicate ±1 SD (N=3). NS not significant, **p<0.0001 empty vault vs. Vault+Byrostatin 1 (2-sided t-test). FIG. 10B) In vitro stimulation of CD69 HIV provirus latency activation biomarker using bryostatin 1 sequestered in AH1 vault complexes compared to empty vault complexes on primary human PBMCs for 24 hrs. Positive control stimulations with 50 nM of byrostatin 1 compound (without vaults) induced CD69 expression in 69.4% (±31.3%) of cells. Error bars indicate ±1 SD (N=4 different cell donors). […]
(§2) Bryostatin 1 is an effective HIV therapeutic as it activates latent HIV provirus that remains within cellular reservoirs. […] The bryostatin 1 sequestered within AH1 vault complex (bryostatin/AH1) was assessed in vitro and in vivo for the ability to activate latent HIV provirus. […] When tested for activity in this way, bryostatin/AH1 activated CD69 expression in primary human PBMC obtained from 4 different donors in a dose dependent manner with stimulation occurring at concentrations as low as 0.1 ng/μL AH1 vault complex as analyzed by flow cytometry (FIG. 10B).

For another data set, the system named is primary human PBMCs. The data set can be described thus: In vitro stimulation of CD69 HIV provirus latency activation biomarker, flow cytometry. It is filed as cell-based. To be noted: 50 nM, without vaults, positive control, 24 hrs, N=4 donors, ±1 SD. The method, then:
as §1, §2
(A flow cytometer gives signals particle by particle.)

Converted amounts (≈) assume the structure as drawn.

As to `CC1=C(/C=C/C(C)=C/C=C/C(C)=C/C(=O)O)C(C)(C)CCC1` [ATRA, All-trans Retinoic Acid], the “aqueous solubility (in words)” value in data set [1] is listed as “aqueous insoluble”.

As for `CCC/C=C/C=C/C(=O)O[C@H]1/C(=C/C(=O)OC)C[C@H]2C[C@H]([C@@H](C)O)OC(=O)C[C@H](O)C[C@@H]3C[C@H](OC(C)=O)C(C)(C)[C@](O)(C[C@@H]4C/C(=C/C(=O)OC)C[C@H](/C=C/C(C)(C)[C@]1(O)O2)O4)O3` [Bryostatin 1], in the data set with J-Lat 10.6 cells, the “cells with induced GFP expression” value amounted to 30.6%. The “cells with induced CD69 expression” value with primary human PBMCs was 69.4%.

`NC(=O)c1[nH]c2ccc(Cl)cc2c1S(=O)(=O)c1ccccc1` [CSIS, 5-chloro-3-phenylsulfonylindole-2-carboxamide]: the solubility in water in data set [1] was 1.4 µg/mL (≈ 4.18 µM).

For the molecule `COc1cccc2c1C(=O)c1c(O)c3c(c(O)c1C2=O)C[C@@](O)(C(=O)CO)C[C@@H]3O[C@H]1C[C@H](N)[C@H](O)[C@H](C)O1` [Doxorubicin], the solubility in water entry in data set [1] is on record as “over 50 mg/mL”.

The record behind these values is patent US10676534B2, “Vaults engineered for hydrophobic drug delivery” (priority 2013, dated 2020).
